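Compound exposure: 48 hours, 5 concentrations, 96-well plates. TGI is the concentration that stops growth completely.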
What was measured:
Assay in all cases: inhibition of tumour cell growth, NCI panel, 48 h
[1] = test system: TK-10 renal
[2] = test system: UACC-62 melanoma
[3] = test system: A498 renal
[4] = test system: SK-OV-3 ovarian
[5] = test system: BT-549 breast
[6] = test system: NCI-H226 lung
[7] = test system: HS 578T breast
[8] = test system: CAKI-1 renal
[9] = test system: SNB-75 CNS
[10] = test system: MDA-N
[11] = test system: ACHN renal
[12] = test system: SW-620 colon
[13] = test system: EKVX NSCLC
[14] = test system: NCI/ADR-RES ovarian
[15] = test system: SN12C renal
[16] = test system: HOP-62 NSCLC
[17] = test system: OVCAR-4 ovarian
[18] = test system: COLO 205 colon
[19] = test system: SNB-19 CNS
[20] = test system: PC-3 prostate
[21] = test system: HCT-15 colon
[22] = test system: SF-539 CNS
[23] = test system: RXF 393 renal
[24] = test system: UACC-257 melanoma
[25] = test system: OVCAR-3 ovarian
[26] = test system: K-562 leukemia
[27] = test system: KM12 colon
[28] = test system: SF-268 CNS
[29] = test system: NCI-H522 lung
[30] = test system: SK-MEL-28 melanoma
[31] = test system: MCF7 breast
[32] = test system: SK-MEL-5 melanoma
[33] = test system: OVCAR-5 ovarian
[34] = test system: MOLT-4 leukemia
[35] = test system: LOX IMVI melanoma
[36] = test system: U251 CNS
[37] = test system: HCT-116 colon
[38] = test system: M14 melanoma
[39] = test system: T-47D breast
[40] = test system: DU-145 prostate
[41] = test system: NCI-H460 lung
[42] = test system: IGROV1 ovarian
[43] = test system: HL-60(TB) leukemia
[44] = test system: HT29 colon
[45] = test system: HOP-92 NSCLC
[46] = test system: A549 NSCLC
[47] = test system: SK-MEL-2 melanoma
[48] = test system: 786-0 renal
[49] = test system: MDA-MB-435
[50] = test system: RPMI-8226 leukemia
[51] = test system: SR leukemia
[52] = test system: OVCAR-8 ovarian
[53] = test system: MDA-MB-231 breast
[54] = test system: SF-295 CNS
[55] = test system: MALME-3M melanoma
[56] = test system: UO-31 renal
[57] = test system: HCC-2998 colon
[58] = test system: CCRF-CEM leukemia
[59] = test system: NCI-H23 lung

SMILES: Cc1cc(Cc2c(C)c(C)c(Cc3cc(C)cc(C(C)(C)C)c3O)c(C)c2C)c(O)c(C(C)(C)C)c1
- TGI [1]: > 100 µM
- TGI [2]: > 100 µM
- TGI [3]: > 100 µM
- TGI [4]: > 100 µM
- TGI [5]: > 100 µM
- TGI [6]: > 100 µM
- TGI [7]: > 100 µM
- TGI [8]: > 100 µM
- TGI [9]: > 100 µM
- TGI [10]: > 100 µM
- TGI [11]: > 100 µM
- TGI [12]: > 100 µM
- TGI [13]: > 100 µM
- TGI [14]: > 100 µM
- TGI [15]: > 100 µM
- TGI [16]: > 100 µM
- TGI [17]: > 100 µM
- TGI [18]: > 100 µM
- TGI [19]: > 100 µM
- TGI [20]: > 100 µM
- TGI [21]: > 100 µM
- TGI [22]: > 100 µM
- TGI [23]: > 100 µM
- TGI [24]: > 100 µM
- TGI [25]: > 100 µM
- TGI [26]: > 100 µM
- TGI [27]: > 100 µM
- TGI [28]: > 100 µM
- TGI [29]: > 100 µM
- TGI [30]: > 100 µM
- TGI [31]: > 100 µM
- TGI [32]: > 100 µM
- TGI [33]: > 100 µM
- TGI [34]: > 100 µM
- TGI [35]: > 100 µM
- TGI [36]: > 100 µM
- TGI [37]: > 100 µM
- TGI [38]: > 100 µM
- TGI [39]: > 100 µM
- TGI [40]: > 100 µM
- TGI [41]: > 100 µM
- TGI [42]: > 100 µM
- TGI [43]: 83.6 µM
- TGI [44]: > 100 µM
- TGI [45]: > 100 µM
- TGI [46]: > 100 µM
- TGI [47]: > 100 µM
- TGI [48]: > 100 µM
- TGI [49]: > 100 µM
- TGI [50]: > 100 µM
- TGI [51]: > 100 µM
- TGI [52]: > 100 µM
- TGI [53]: > 100 µM
- TGI [54]: > 100 µM
- TGI [55]: > 100 µM
- TGI [56]: > 100 µM

SMILES: CCN(CC)c1ccc(/C=C/C2=NN(c3cccc(S(=O)(=O)O)c3)C3(C2)SCC(=O)N3c2nc3ccccc3s2)cc1 (centres undefined)
- TGI [1]: 94 µM
- TGI [2]: > 100 µM
- TGI [3]: 99 µM
- TGI [5]: > 100 µM
- TGI [6]: > 100 µM
- TGI [7]: > 100 µM
- TGI [8]: > 100 µM
- TGI [9]: > 100 µM
- TGI [10]: > 100 µM
- TGI [11]: > 100 µM
- TGI [12]: > 100 µM
- TGI [13]: > 100 µM
- TGI [14]: > 100 µM
- TGI [15]: > 100 µM
- TGI [17]: > 100 µM
- TGI [18]: 81.1 µM
- TGI [19]: > 100 µM
- TGI [20]: > 100 µM
- TGI [21]: > 100 µM
- TGI [22]: > 100 µM
- TGI [23]: > 100 µM
- TGI [24]: > 100 µM
- TGI [26]: > 100 µM
- TGI [27]: 60.5 µM
- TGI [28]: > 100 µM
- TGI [29]: 67.2 µM
- TGI [30]: > 100 µM
- TGI [31]: 91.2 µM
- TGI [32]: > 100 µM
- TGI [33]: > 100 µM
- TGI [34]: > 100 µM
- TGI [35]: > 100 µM
- TGI [36]: > 100 µM
- TGI [37]: > 100 µM
- TGI [38]: > 100 µM
- TGI [39]: 53.9 µM
- TGI [40]: 75.7 µM
- TGI [57]: > 100 µM
- TGI [58]: 55 µM
- TGI [41]: > 100 µM
- TGI [42]: > 100 µM
- TGI [43]: 80.3 µM
- TGI [44]: > 100 µM
- TGI [45]: > 100 µM
- TGI [46]: > 100 µM
- TGI [47]: > 100 µM
- TGI [48]: > 100 µM
- TGI [49]: 47.2 µM
- TGI [50]: 66.8 µM
- TGI [51]: 86.2 µM
- TGI [52]: > 100 µM
- TGI [53]: > 100 µM
- TGI [55]: > 100 µM
- TGI [59]: > 100 µM
- TGI [56]: > 100 µM

SMILES: N/C(=N\Nc1ccc(C(=O)O)cc1)c1cnccn1
- TGI [1]: > 100 µM
- TGI [2]: > 100 µM
- TGI [3]: > 100 µM
- TGI [4]: > 100 µM
- TGI [5]: > 100 µM
- TGI [6]: > 100 µM
- TGI [7]: > 100 µM
- TGI [8]: > 100 µM
- TGI [9]: > 100 µM
- TGI [10]: > 100 µM
- TGI [11]: > 100 µM
- TGI [12]: > 100 µM
- TGI [13]: > 100 µM
- TGI [14]: > 100 µM
- TGI [15]: > 100 µM
- TGI [16]: > 100 µM
- TGI [17]: > 100 µM
- TGI [18]: > 100 µM
- TGI [19]: > 100 µM
- TGI [20]: > 100 µM
- TGI [21]: > 100 µM
- TGI [22]: > 100 µM
- TGI [23]: > 100 µM
- TGI [24]: > 100 µM
- TGI [25]: > 100 µM
- TGI [26]: > 100 µM
- TGI [27]: > 100 µM
- TGI [28]: > 100 µM
- TGI [29]: > 100 µM
- TGI [30]: > 100 µM
- TGI [31]: > 100 µM
- TGI [32]: > 100 µM
- TGI [33]: > 100 µM
- TGI [34]: > 100 µM
- TGI [35]: > 100 µM
- TGI [36]: > 100 µM
- TGI [37]: > 100 µM
- TGI [38]: > 100 µM
- TGI [39]: > 100 µM
- TGI [40]: > 100 µM
- TGI [57]: > 100 µM
- TGI [41]: > 100 µM
- TGI [42]: > 100 µM
- TGI [43]: 0.166 µM
- TGI [44]: > 100 µM
- TGI [45]: > 100 µM
- TGI [46]: > 100 µM
- TGI [47]: > 100 µM
- TGI [48]: > 100 µM
- TGI [49]: > 100 µM
- TGI [50]: > 100 µM
- TGI [51]: > 100 µM
- TGI [52]: > 100 µM
- TGI [53]: > 100 µM
- TGI [54]: > 100 µM
- TGI [55]: > 100 µM
- TGI [59]: > 100 µM
- TGI [56]: > 100 µM
